In patent publication US11083197B2, “Herbicidal composition comprising chromone derivatives and a method for weed control” (INVESTIGACIONES BIOLÓGICAS EN AGROQUÍMICOS ROSARIO S.A., priority 2015, dated 2021):

Tested on: crabgrass (D. sanguinalis), barnyardgrass (E. crus-galli) and velvetleaf (A. theophrasti)
Experiment: Greenhouse postemergence spray, 4.0 kg ai/ha
Type: in vivo
Description: Aqueous solution containing commercial standard of pure compound of Formula IV was prepared and sprayed on crabgrass (D. sanguinalis), barnyardgrass (E. crus-galli) and velvetleaf (A. theophrasti). Plants were sprayed at 2-3 true leaf stage (13-16-day-old plants). For better dissolution of compounds in water AGRIDEX (1% v/v) and acetone (1% v/v) were added to spray solutions. Final rate of compounds was 4.0 kg ai ha^−1. Plant height and dry weight were measured at 11 days after spray. Results were compared with the bio herbicide pelargonic acid at 4.0 kg ai ha^−1.

SMILES: COc1c2ccoc2cc2oc(C)cc(=O)c12 [Formula IV, 4-methoxy-7-methyl-5H-furo[3,2-g]chromen-5-one]
- kind of postemergence herbicidal activity: by contact and non-selective
- height and biomass of sprayed weeds versus control plants (11 days after spray): significantly smaller
- symptoms on treated plants (11 days after treatment): necrotic lesions and some abnormally formed leaves
